From patent US8518965B2, “Compositions and methods for treating cancer” (Trustees of Dartmouth College, priority 2009, dated 2013)

Tests used:
[1] = State of stock and injection solutions in water + co-solvents; format: physicochemical
Method: The solubility of D11B in various combinations of solvents was also analyzed. […] For the analysis of co-solvents, stock solutions were prepared by dissolving D11B in a corresponding solvent. Stock solutions of D11B in dimethylsulfoxide (DMSO) were prepared at 25° C., and stock solutions of D11B in PEG-400, CREMOPHOR® EL and Polysorbate 80 were prepared at 100° C. Injection solutions, in water (0.3 mg/ml), were prepared by dropwise addition of the stock solution to a required volume of vigorously stirred hot water (80° C.).
Additional solubility determinations were carried out with D11B×2AH in water+co-solvents. For this analysis, stock solutions were prepared by dissolving D11B×2AH in a corresponding solvent. Stock solutions of D11B×2AH in DMSO were prepared at 25° C. and stock solutions of D11B×2AH in PEG-400 were prepared at 100° C.
Injection solutions in water (0.3 mg/ml) were prepared by dropwise addition of each stock solution to a required volume of vigorously stirred water.

[2] = system: SF 295 human glioblastoma cells; test: Colony formation assay, SF 295 cells; format: cell-based
Method: (§1) NCI/ADR-RES human breast cancer cells (500 cells), HCT116 human colon cancer cells (400 cells) or SF 295 human glioblastoma cells (1000 cells) were plated in 60 mm Petri dishes containing 2.7 ml of medium (modified McCoy's 5a medium containing 10% fetal bovine serum and 100 units/ml penicillin and 100 μg/ml streptomycin). The cells were incubated in a CO2 incubator at 37° C. for 5 hours for attachment to the bottom of Petri dishes. Compounds were prepared fresh in medium at ten times the final concentration, and then 0.3 ml of this stock solution was added to the 2.7 ml of medium in the dish. The cells were then incubated with compounds for 72 hours at 37° C. At the end of incubation, the compound-containing media were decanted, the dishes were rinsed with 4 ml of Hank's Balance Salt Solution (HBSS), 5 ml of fresh medium was added, and the dishes were returned to the incubator for colony formation. The cell colonies were counted using a colony counter after incubation for 14 days for NCI/ADR-RES cells and 10 days for HCT116 cells and SF 295 cells. Cell survival was calculated and the IC50 values (the drug concentration producing 50% inhibition of colony formation) were determined for each tested compound.
One thousand SF 295 cells were plated in 60 mm Petri dishes containing 2.7 ml of medium (modified McCoy's 5a medium containing 10% fetal bovine serum and 100 units/ml penicillin and 100 μg/ml streptomycin). The cells were incubated in a CO2 incubator at 37° C. for 5 hours for attachment to the bottom of Petri dishes. Compounds were prepared fresh in medium at ten times the final concentration, and then 0.3 ml of this stock solution was added to the 2.7 ml of medium in the dish. The cells were then incubated with the compounds for 72 hours at 37° C. At the end of incubation, the compound-containing media were decanted, the dishes were rinsed with 4 ml of Hank's Balance Salt Solution (HBSS), 5 ml of fresh medium was added, and the dishes were returned to the incubator for colony formation. After incubation for 10 days, the cell colonies were counted using a colony counter. Cell survival was calculated and the values of IC50 were determined for each compound tested.

[3] = system: HCT116 human colon cancer cells; test: Colony formation assay, HCT116 cells; format: cell-based
Method: as §1
Four hundred HCT116 cells were plated in 60 mm Petri dishes containing 2.7 ml of medium (modified McCoy's 5a medium containing 10% fetal bovine serum and 100 units/ml penicillin and 100 μg/ml streptomycin). The cells were incubated in a CO2 incubator at 37° C. for 5 hours for attachment to the bottom of Petri dishes. Compounds were prepared fresh in medium at ten times the final concentration, and then 0.3 ml of this stock solution was added to the 2.7 ml of medium in the dish. The cells were then incubated with drugs for 72 hours at 37° C. At the end of incubation the compound-containing media were decanted, the dishes were rinsed with 4 ml of Hank's Balance Salt Solution (HBSS), 5 ml of fresh medium was added, and the dishes were returned to the incubator for colony formation. HCT116 cell colonies were counted using a colony counter after […] of incubation. Cell survival was calculated and IC50 values were determined for each compound tested.

[4] = system: NCI/ADR-RES human breast cancer cells; test: Colony formation assay, NCI/ADR-RES cells; format: cell-based; conditions: 72 hours with compound, colonies counted after 14 days
Method: as §1

[5] = system: SF 295 human glioblastoma xenografts; test: In vivo efficacy, SF 295 xenografts in nude mice; conditions: D11B 382 mg/kg single i.p. injection
Method: In vivo anticancer efficacy studies were performed on nude mice (nu/nu genotype) bearing SF 295 human glioblastoma xenografts. […]. Treatment was initiated at that time, with the first day of treatment designated as day 0 for all calculations and plots. […] Compound doses were 382 mg/kg for D11B, 212 mg/kg for D15B, 5 mg/kg for D25B, and 10.6 mg/kg for D35B. Mice in the control group bearing 3 mm diameter tumors was treated with vehicle alone. After treatment, tumor sizes were measured by caliper every day. Daily measurements of the tumor diameters (d1, d2) in two orthogonal directions was used to calculate the tumor volume (tumor volume=π/6{(d1+d2)/2}^3) using the approximation that the tumors were spherical. The values of time (days) required to grow the tumor to twice their initial size after various treatments was calculated as tumor doubling time (TDT) for evaluating the treatment effects. Survival times and curative effects after treatment were also observed and recorded.

in vivo = conditions: C3H/HeN, mouse, ip
Method: The MTD40 (maximum tolerated dose at day 40) values were determined on normal C3H/HeN mice using standard procedures. […] The result of this exercise was two dosages, one apparently nonlethal and the other lethal, if severe and irreversible toxicity occurred and euthanasia was required. Six mice were dosed at each dosage. If no severe and irreversible toxicity occurred at the lower dosage and at least one with severe and irreversible toxicity at the higher dose, then the lower dose was considered to be the MTD.
Compounds were administered to C3H/HeN mice by intraperitoneal injection (5% alcohol, 5% CREMOPHOR® EL, and 90% saline, 0.5 ml/20 gram, single injection). Drug toxicity was evaluated on mice checked daily for 40 days. The toxicity parameters reported were the MTD40. […] At the end of experiment, all mice were euthanized.
The toxicity parameters reported were the MTD40. At the end of experiment, all mice will be euthanized.

In the case of c1ccc2c(Nc3ccc(Oc4ccc(Nc5c6ccccc6nc6ccccc56)cc4)cc3)c3ccccc3nc2c1 [Compound D11B], the “State of the stock solution” value ([1]; D11B in DMSO, 20 mg/ml) is reported as “clear”, the “State of the stock solution” value ([1]; D11B in DMSO, 30 mg/ml) is reported as “clear” and the “State of the stock solution” value ([1]; D11B in DMSO, 40.5 mg/ml) is reported as “clear”. For the same molecule, the “State of the stock solution” value ([1]; D11B in DMSO, 50 mg/ml) was “clear”, the “State of the stock solution” value ([1]; D11B in DMSO, 70 mg/ml) was “clear” and the “State of the stock solution” value ([1]; D11B in DMSO, 100 mg/ml) was “clear”. For the same molecule, the “State of the injection solution” value ([1]; D11B in H2O-CREMOPHOR EL, 0.3 mg/ml, CREMOPHOR EL 1 wt. %) was “clear”, the “State of the injection solution” value ([1]; D11B in H2O-PEG-400 0.3 mg/ml, stock 12 mg/ml, PEG-400 2.82 wt. %) was “clear^b” and the “State of the injection solution” value ([1]; D11B in H2O-PEG-400 0.3 mg/ml, stock 20 mg/ml, PEG-400 1.7 wt. %) was “clear^a”. The “State of the injection solution” value ([1]; D11B in H2O-Polysorbate 80, 0.3 mg/ml, Polysorbate 80 1 wt. %) was “clear”, the “State of the injection solution” value ([1]; D11B in H2O—DMSO 0.3 mg/ml, stock 20 mg/ml, DMSO 1.65 wt. %) was “clear” and the “State of the injection solution” value ([1]; D11B in H2O—DMSO 0.3 mg/ml, stock 30 mg/ml, DMSO 1.1 wt. %) was “clear”. For the same molecule, the “State of the injection solution” value ([1]; D11B in H2O—DMSO 0.3 mg/ml, stock 40.5 mg/ml, DMSO 0.83 wt. %) was “clear”, the “State of the injection solution” value ([1]; D11B in H2O—DMSO 0.3 mg/ml, stock 50 mg/ml, DMSO 0.66 wt. %) was “clear” and the “State of the injection solution” value ([1]; D11B in H2O—DMSO 0.3 mg/ml, stock 70 mg/ml, DMSO 0.47 wt. %) was “clear”. The “State of the injection solution” value ([1]; D11B in H2O—DMSO 0.3 mg/ml, stock 100 mg/ml, DMSO 0.33 wt. %) was “clear”, the “State of the stock solution” value ([1]; D11B in PEG-400, 12 mg/ml) was “clear” and the “State of the stock solution” value ([1]; D11B in PEG-400, 20 mg/ml) was “gel”. For the same molecule, the “State of the stock solution” value ([1]; D11B in PEG-400, 40 mg/ml) was “gel”, the “State of the stock solution” value ([1]; D11B in Polysorbate 80, 32.25 mg/ml) was “clear” and the IC50 ([2]; Homo sapiens, SF 295 cells, 72 hours with compound, colonies counted after 10 days, read-out: IC50 (nM) Glioblastoma) was 177 nM. The “IC50 values lower for glioblastoma cells as compared to breast cancer cells” value ([2]; glioblastoma vs breast cancer cells) was “approximately 10 fold”, the IC50 ([3]; Homo sapiens, HCT-116, HCT116 cells, 72 hours with compound, colonies counted after 10 days, read-out: IC50 (nM) Colon Cancer) was 167 nM and the “IC50 values lower for colon cells as compared to breast cancer cells” value ([3]; colon vs breast cancer cells) was “approximately 10 fold”. The IC50 [4] was 1310 nM, the Curative effect [5] was “one mouse was even cured” and the “Ratio of TDTs (D11B treated over control)” value [5] was 9.8. For the same molecule, the “TDT (tumor doubling time)” value ([5]; control group 2.5 days) was 24.5 days, the Mean survival time ([5]; control group 40.5 days) was at least 58.67 days and the MTD at 40 days (in vivo) was 450 mg/kg.
